Source: patent publication US20030212144A1, “Method for inducing an estrous cycle and pregnancy in a female mammal” (priority 2003, published 2003)
No end group written: not given here.

Legend:
old acyclic rats = settings: cited from earlier work
[1] = test system: release of norepinephrine (NE) from the hypothalamus; test: norepinephrine release and content, static in vitro incubation of hypothalami, HPLC-EC; assay type: cell-based, Sprague-Dawley rats; settings: for content of NE in the hypothalami at the end of the experiment: control 1104±588
Experimental: (§1) Four- to six-month old male Sprague-Dawley rats were obtained from Amitech (Omaha, Nebr.). These rats were housed in groups in air-conditioned (23±2° C.) and light controlled (lights on from 0700-1900 hours) animal rooms. They were provided rat chow and water ad libitum.
(§2) On the day of the experiment, the rats were sacrificed between 1200-1300 hrs. The brains were removed immediately and the hypothalami were dissected out using the following boundaries: the posterior part of the optic chiasmas the anterior limit, the anterior part of the mammillary bodies as the posterior limit, and the lateral hypothalamic sulci as the lateral limits (Palazzolo et al., Life Sci. 47: 2105-2109 (1990); Palazzolo et al., Life Sci. 51: 1797-1802 (1992)).
(§3) The hypothalami were weighed and divided into two halves along the sagittal plane and placed in a 12×75 mm glass tube containing 300 μl of Krebs-Ringer Henseleit (KRH) solution. The hypothalami were incubated in a static in vitro incubation system as described previously (Palazzolo et al., Life Sci. 47: 2105-2109 (1990); Palazzolo et al., Life Sci. 51: 1797-1802 (1992)). Briefly, the incubation system consisted of a plexiglass water bath, a magnetic circulator fin, and a thermostat coil. The bath was filled with distilled water and the thermostat was switched on at least an hour before the perfusion. The temperature in the water bath was maintained at 37° C. The magnetically controlled circulator fins stirred the water constantly to maintain a uniform temperature throughout the water bath. The incubation medium, KRH, consisted of 117 mM NaCl, 4.7 mM KCl, 1.2 mM MgSO4, 1.2 mM KH2PO4, 2.5 mM CaCl2, 24.8 mM NaHCO3, 11.1 mM glucose, 0.1 mg/ml ascorbic acid in 1 L of pyrogen free water. During the experiment, the incubation medium was supplied a mixture of 95% oxygen and 5% carbon dioxide constantly through gas inlet lines at a slow and steady rate to avoid turbulence. To stabilize the release of monoamines, each hypothalamus was preincubated in KRH for 60 min. Following this, the hypothalami were incubated for four 60-min periods as described below.
(§4) During the first incubation period, the hypothalami were incubated in KRH for 60 min to measure the basal release of monoamines and their metabolites. During the second incubation period, the hypothalami were incubated in KRH containing 0, 0.1 mM, 1.0 mM, or 10 mM of deprenyl. After this, the hypothalami were rinsed and incubated in KRH alone (without deprenyl) during the third incubation period to measure the residual effects, if any, from the pervious incubation period. In the final incubation period, the hypothalami were incubated with high K^+ KRH, which, had the same composition as the KRH except that it contained 60 mM KCl and 57 mM NaCl, to check the viability of the tissue. Hypothalami were rinsed with KRH in between incubations. After each incubation period, incubation medium was removed and 0.1 M HClO4 was added to it at the ratio of 25:1 (v/v) and was stored at −70° C. until analysis for neurotransmitters by HPLC-EC. At the end of the treatment period, the hypothalami were transferred to microsample vials containing 0.1 M HClO4 and were stored at −70° C. At the time of HPLC analysis, the hypothalami were homogenized in KRH and centrifuged at 1000 RPM for 15 min and the supernatant was used for the measurement of neurotransmitters.
(§5) The HPLC-EC system has been described before (Palazzolo et al., Life Sci. 47: 2105-2109 (1990); Palazzolo et al., Life Sci. 51: 1797-1802 (1992); ThyagaRajan, S.; Meites et al., Endocrinol. 136: 1103-1110 (1995)). Briefly, it consisted of an LC-4B electrochemical detector (Bioanalytical Systems, West Lafayette, Ind.); a phase II, 5 μm ODS reverse phase, C-18 column; a glassy carbon electrode, a C-R6A Chromatopac integrator, a CTO-6A column oven, and an LC-6A pump (Shimadzu, Columbia, Md.). […]

old male rats = settings: cited from earlier work
[2] = test system: release of 5-hydroxyindoleacetic acid (5-HIAA) from the hypothalamus; test: 5-HIAA release and content, static in vitro incubation of hypothalami, HPLC-EC; assay type: cell-based, Sprague-Dawley rats
Experimental: as §1, §2
The hypothalami were weighed and divided into two halves along the sagittal plane and placed in a 12×75 mm glass tube containing 300 μl of Krebs-Ringer Henseleit (KRH) solution. The hypothalami were incubated in a static in vitro incubation system as described previously (Palazzolo et al., Life Sci. 47: 2105-2109 (1990); Palazzolo et al., Life Sci. 51: 1797-1802 (1992)). Briefly, the incubation system consisted of a plexiglass water bath, a magnetic circulator fin, and a thermostat coil. The bath was filled with distilled water and the thermostat was switched on at least an hour before the perfusion. […]

[3] = test system: carcinogen-induced mammary tumor; settings: rats; cited from earlier work
[4] = test system: release of dihydroxyphenylacetic acid (DOPAC) from the hypothalamus; test: DOPAC release and content, static in vitro incubation of hypothalami, HPLC-EC; assay type: cell-based, Sprague-Dawley rats; settings: for concentration of DOPAC in the hypothalamus at the end of the experiment: control 416±176; for DOPAC release: second incubation period; for DOPAC release after removal of deprenyl from the medium: third incubation period
Experimental: as §1, §2, §3, §4, §5

[5] = test system: release of serotonin (5-HT) from the hypothalamus; test: 5-HT release and content, static in vitro incubation of hypothalami, HPLC-EC; assay type: cell-based, Sprague-Dawley rats; settings: for 5-HT release: second incubation period, control 41.0±21; for content of 5-HT at the end of the experiment: p<0.05
Experimental: as §1, §2, §3, §4, §5

[6] = test system: release of dopamine (DA) from the hypothalamus; test: dopamine release and content, static in vitro incubation of hypothalami, HPLC-EC; assay type: cell-based, Sprague-Dawley rats; settings: for DA release after removal of deprenyl: third incubation period; for DA content of the hypothalami at the end of the experiment: p<0.05
Experimental: as §1, §2, §3, §4, §5

[7] = test system: retired racing female greyhounds; test: induction of heat in retired racing female greyhounds previously treated with testosterone; assay type: in vivo, greyhound (canine); settings: oral in saline, seven animals, saline control 22%
Experimental: Retired racing female greyhounds that were previously treated with testosterone were used in the experiments. Nine animals were used in the control group, and seven animals each were used in the low dose (0.5 mg/kg body weight deprenyl) and the high dose (0.75 mg/kg body weight) groups. Control animals were treated with oral saline solution. Experimental, animals were treated with one of the two doses of deprenyl orally dissolved in saline.

serum prolactin = settings: young and old rats; cited from earlier work
greyhound bitches = settings: Bruyette et al., personal communication; cited from earlier work

Compound: N[C@@H](Cc1ccc(O)c(O)c1)C(=O)O [1-dopa]
- restoration of heat and the estrous cycle (old acyclic rats): restoration of heat and the estrous cycle

Compound: CC(C)NNC(=O)c1ccncc1 [Iproniazid, 4-pyridinecarboxyylic acid, 2-(1-methylethyl)hydrazine]
- restoration of heat and the estrous cycle (old acyclic rats): reinstate the estrous cycle

Compound: C#CCN(C)C(C)Cc1ccccc1 (stereo not drawn) [deprenyl, phenethylamine, N, alpha-dimethyl-N-2-propynyl]
- content of NE in the hypothalami at the end of the experiment ([1]; 0.1 mM deprenyl group): 743.3±179
- NE release (Mean±S.E.) ([1]; 0.1 mM deprenyl, second incubation period (KRH+DEP), pretreatment 196.9±43, increase not significant): 252.3±48 pg/mg hypothalamus
- NE release (Mean±S.E.) ([1]; 0.1 mM group, fourth period, high potassium KRH, p<0.05): 538.2±142 pg/mg hypothalamus
- NE release (Mean±S.E.) ([1]; 0.1 mM group, third incubation period (KRH alone after deprenyl)): 185.1±42 pg/mg hypothalamus
- content of NE in the hypothalami at the end of the experiment ([1]; 1 mM deprenyl group, p<0.05): 388.1±71
- NE release (Mean±S.E.) ([1]; 1 mM group, last period, high K+ KRH, p<0.05): 375.2±92 pg/mg hypothalamus
- NE release (Mean±S.E.) ([1]; 1 mM group, third incubation period (KRH alone)): 267.7±28 pg/mg hypothalamus
- content of NE in the hypothalami at the end of the experiment ([1]; 10 mM deprenyl group, p<0.05): 281.3±91
- NE release (Mean±S.E.) ([1]; 10 mM deprenyl, second incubation period, pretreatment 132.8±56, p<0.05): 799.9±141 pg/mg hypothalamus
- NE release (Mean±S.E.) ([1]; 10 mM group, high K+ KRH, not statistically significant): 222.4±57 pg/mg hypothalamus
- NE release (Mean±S.E.) ([1]; 10 mM group, third incubation period (KRH alone)): 159.8±41 pg/mg hypothalamus
- sexual activity (old male rats): increase sexual activity
- content of 5-HIAA in the hypothalami at the end of the experiment ([2]; deprenyl treated groups compared to the control group, P<0.05): significantly low
- release of 5-HIAA ([2]; hypothalami incubated with different doses of deprenyl (0.1, 1, 10 mM)): dose-dependant decrease
- carcinogen-induced mammary tumor growth [3]: inhibits carcinogen-induced mammary tumor growth
- concentration of DOPAC in the hypothalamus at the end of the experiment ([4]; 0.1 mM deprenyl group): 290.0±110
- DOPAC release ([4]; 0.1 mM deprenyl): did not produce any change
- concentration of DOPAC in the hypothalamus at the end of the experiment ([4]; 1 mM deprenyl group, p<0.05): 86.8±34
- DOPAC release ([4]; 1 mM deprenyl, pretreatment 267.7±46, p<0.01): 139.6±19
- DOPAC release after removal of deprenyl from the medium ([4]; 1 mM group): remained low
- concentration of DOPAC in the hypothalamus at the end of the experiment ([4]; 10 mM deprenyl group, p<0.05): 34.3±16
- DOPAC release ([4]; 10 mM deprenyl, pretreatment 285.6±28, p<0.001): 68.9±20
- DOPAC release after removal of deprenyl from the medium ([4]; 10 mM group): remained low
- DOPAC release on stimulation with high potassium KRH ([4]; all the deprenyl-treated groups (0.1, 1, 10 mM)): did not produce any increase
- 5-HT release ([5]; 0.1 mM deprenyl): 186.4±62
- 5-HT release on stimulation with high potassium KRH ([5]; 0.1 mM group): significant increase
- 5-HT release ([5]; 1 mM deprenyl): 438.4±85
- content of 5-HT at the end of the experiment ([5]; 1 mM group compared to the control group): significantly reduced
- 5-HT release ([5]; 10 mM deprenyl): 670.3±199
- content of 5-HT at the end of the experiment ([5]; 10 mM group compared to the control group): significantly reduced
- 5-HT release upon removal of deprenyl from the medium ([5]; third incubation period): declined rapidly
- DA release ([6]; 0.1 mM deprenyl, second incubation period, not significantly different from pretreatment): 125.1±49
- DA release ([6]; 0.1 mM group, high K+ KRH, significant increase): 393.1±109
- DA release after removal of deprenyl ([6]; 0.1 mM group): brought DA release to pretreatment levels
- DA release ([6]; 1 mM deprenyl, second incubation period, pretreatment 42.9±6): 154.8±59
- DA content of the hypothalami at the end of the experiment ([6]; 1 mM group compared to 0 mM group): significantly less
- DA release ([6]; 1 mM group, high K+ KRH, significant increase): 106.8±27
- DA release after removal of deprenyl ([6]; 1 mM group): brought DA release to pretreatment levels
- DA release ([6]; 10 mM deprenyl, second incubation period): 197.7±63
- DA content of the hypothalami at the end of the experiment ([6]; 10 mM group compared to 0 mM group): significantly less
- DA release ([6]; 10 mM group, high potassium KRH, not statistically significant from pretreatment): 85.3±40
- DA release after removal of deprenyl ([6]; 10 mM group): returned DA release to basal levels
- animals that came to heat ([7]; higher dose 0.75 mg/kg body weight): 86%
- animals that came to heat ([7]; low dose 0.5 mg/kg body weight): Fifty
- restoration of heat and the estrous cycle (old acyclic rats): restore heat and the estrous cycle
- serum prolactin concentrations (serum prolactin): decreases serum prolactin concentrations

Compound: GnRH: hypothalamic hormone called gonadotropin-releasing hormone (QHWSYGLRPG; ends and bridges not checked; UniProt P01148 24-33, looked up)
- induction of heat (greyhound bitches): unable to induce heat
